Experimental data: the NIST ThermoML archive (doi:10.1021/je500845d)
± gives the expanded uncertainty stated by the source.

Legend:
[1] = Crystal; DTA
[2] = Molar enthalpy of transition or fusion; details: Crystal; DSC

Row | SMILES | Normal melting temperature [1] [°C] | Molar enthalpy of transition or fusion [2] [kcal/mol]
1 | O=C(O)C(O)c1ccccc1Br (stereo not given) [2-(2-bromophenyl)-2-hydroxyacetic acid] | 86.8 ± 1 | 5.33 ± 0.311
2 | O=C(O)C(O)c1cccc(Br)c1 (stereo not given) [2-(3-bromophenyl)-2-hydroxyacetic acid] | 119.6 ± 1 | 7.19 ± 0.311
3 | O=C(O)C(O)c1ccc(Br)cc1 (stereo not given) [2-(4-bromophenyl)-2-hydroxyacetic acid] | 118.1 ± 1 | 4.25 ± 0.311
4 | O=C(O)C(O)c1ccc(Cl)cc1F (stereo not given) [2-(4-chloro-2-fluorophenyl)-2-hydroxyacetic acid] | 90.5 ± 1 | 4.23 ± 0.311
5 | O=C(O)C(O)c1ccc(Cl)cc1 (stereo not given) [2-(4-chlorophenyl)-2-hydroxyacetic acid] | 120.1 ± 1 | 3.87 ± 0.311
6 | O=C(O)C(O)c1ccc(F)cc1Cl (stereo not given) [2-chloro-4-fluoromandelic acid] | 97.6 ± 1 | 4.35 ± 0.311
7 | O=C(O)C(O)c1ccccc1I (stereo not given) [2-hydroxy-2-(2-iodophenyl)acetic acid] | 109.0 ± 1 | 5.98 ± 0.311
8 | O=C(O)C(O)c1cccc(I)c1 (stereo not given) [2-hydroxy-2-(3-iodophenyl)acetic acid] | 97.0 ± 1 | 5.88 ± 0.311
9 | O=C(O)C(O)c1ccc(I)cc1 (stereo not given) [2-hydroxy-2-(4-iodophenyl)acetic acid] | 142.2 ± 1 | 7.27 ± 0.311
10 | Cc1cccc(C(O)C(=O)O)c1 (stereo not given) [2-hydroxy-2-(m-tolyl)acetic acid] | 92.4 ± 1 | 6.12 ± 0.311
11 | Cc1ccccc1C(O)C(=O)O (stereo not given) [2-hydroxy-2-(o-tolyl)acetic acid] | 103.8 ± 1 | 5.14 ± 0.311
12 | Cc1ccc(C(O)C(=O)O)cc1 (stereo not given) [2-hydroxy-2-(p-tolyl)acetic acid] | 143.8 ± 1 | 6.12 ± 0.311
13 | O=C(O)[C@@H](O)c1ccccc1Br [(S)-2-(2-bromophenyl)-2-hydroxyacetic acid] | 119.4 ± 1 | 5.35 ± 0.311
14 | O=C(O)[C@@H](O)c1ccc(F)cc1Cl [(S)-2-(2-chloro-4-fluorophenyl)-2-hydroxyacetic acid] | 132.8 ± 1 | 4.8 ± 0.311
15 | O=C(O)[C@@H](O)c1cccc(Br)c1 [(S)-2-(3-bromophenyl)-2-hydroxyacetic acid] | 103.1 ± 1 | 5.5 ± 0.311
16 | O=C(O)[C@@H](O)c1ccc(Br)cc1 [(S)-2-(4-bromophenyl)-2-hydroxyacetic acid] | 127.6 ± 1 | 4.11 ± 0.311
17 | O=C(O)[C@@H](O)c1ccc(Cl)cc1F [(S)-2-(4-chloro-2-fluorophenyl)-2-hydroxyacetic acid] | 107.8 ± 1 | 3.61 ± 0.287
18 | O=C(O)[C@@H](O)c1ccc(Cl)cc1 [(S)-2-(4-chlorophenyl)-2-hydroxyacetic acid] | 119.6 ± 1 | 6.48 ± 0.311
19 | Cc1cccc([C@H](O)C(=O)O)c1 [(S)-2-hydroxy-2-(m-tolyl)acetic acid] | 109.7 ± 1 | 6.98 ± 0.311
20 | Cc1ccc([C@H](O)C(=O)O)cc1 [(S)-2-hydroxy-2-(p-tolyl)acetic acid] | 131.5 ± 1 | 5.35 ± 0.311
